Assay results taken from patent US20120046246A1, “METHODS FOR TREATING OSTEOCLAST-RELATED DISEASE, COMPOUNDS AND COMPOSITIONS THEREOF” (University of Florida Research Foundation, priority 2008, published 2012).

Assays:
[1] = tested on: mature osteoclasts on bone slices; assay: ruffled membrane formation / V-ATPase trafficking in mature osteoclasts on bone slices (anti-E subunit antibody); format: cell-based
Protocol: FIG. 7 depicts that enoxacin (10 μM) blocks ruffled membrane formation. Mature osteoclasts on bone slices were treated with enoxacin or vehicle control for 3 days, then fixed and labeled with an anti-E subunit antibody. […] Arrows point to representative osteoclasts; The present inventors also tested the effects of enoxacin on osteoclasts that were already mature and loaded onto bone slices. In this experiment, mature osteoclasts on bone slices were treated with enoxacin or vehicle control for 3 days, then fixed and labeled with an anti-E subunit antibody. Control osteoclasts produced many ruffled membranes.

osteoblast formation = osteoblast formation in mouse marrow cultures, judged by alkaline phosphatase expressing cells; format: cell-based; settings: 1-10 μM
Protocol: Enoxacin and Binhib 2 were then tested for their effects on osteoclastogenesis stimulated by calcitriol in mouse marrow cultures. The mixed cultures represent a model for the complex interactions that regulate bone resorption in vivo.
In addition, at 1-10 μM enoxacin, osteoclast formation was inhibited while osteoblast formation, judged by alkaline phosphatase expressing cells, was not affected. And, at level of 100 μM, enoxacin blocked 90% of the B subunit from binding F-actin.

GW bodies = assay: GW body formation; format: cell-based, mouse
Protocol: GW bodies: GW bodies have been reported to be correlated with miRNA activity (Pauley, K. M., et al. EMBO Rep. 2006, 7:904-910; Lian, S., et al. Cell Cycle 2006, 5:242-245). Enoxacin, an enhancer of miRNA activity, is predicted to increase the number of GW bodies present and/or increase the size of GW bodies. To test whether enoxacin affects GW body formation, calcitriol-stimulated mouse marrow cultures, RANKL-stimulated primary hematopoietic cells and primary calvarial osteoblasts are treated with enoxacin. A dose response curve using doses above and below the IC50 dose is performed for inhibition of osteoclast formation and bone resorption. Osteoclast formation, staining and enumerating TRAP+ cells, and ruffled membrane formation are examined, by treating preformed osteoclasts on bone slices. Cells are fixed at various time points after treatment with enoxacin, and stain with polyclonal antibody against GW bodies and monoclonal anti-DCP1. The number of GW bodies in at least 100 randomly sampled cells is counted. The number of GW bodies is divided by the number of nuclei/cell, as determined by counting DAPI stained nuclei. This experiment is repeated in triplicate. Counts are performed by pre-calibrated assistants who are blinded to the nature of the experiment. Images are taken using a Zeiss Axiovert 200 M microscope and a Zeiss AxioCam MRm camera using the 40×0.75 NA objective.

[2] = tested on: ovariectomized (OVX) rats; assay: ovariectomized (OVX) rat model; format: in vivo; settings: oral daily, 6 weeks
Protocol: Enoxacin is tested in ovariectomized (OVX) rats that lose bone in a manner similar to that of postmenopausal women. This model has been widely and successfully utilized as an early pre-clinical model for osteoporotic disease (Pun, S., et al. Bone, 2000, 27:197-202; Wronski, T. J., et al. Endocrinology, 1993, 132:823-831; Wronski, T. J., et al. Endocrinology, 1988, 123:681-686; Iwaniec, U. T., et al. Endocrinology, 2002, 143:2515-2526). In this study, the effects of systemic administration of enoxacin are examined.
In this study, ligands identified that block V-ATPase/F-actin interactions and bone resorption in vitro are advanced to in vivo testing in OVX rats. Female Sprague Dawley rats are subjected to sham surgery or ovariectomized at 3 months of age (see the preceding references). On the day after surgery, groups of sham operated control and OVX rats are injected subcutaneously (SC) with vehicle or treated with vehicle via oral gavage. A second group of OVX rats are injected SC 3 days/week with 17β-estradiol (Sigma, St. Louis, Mo.) at a dose of 10 μg/kg to inhibit bone resorption and prevent cancellous bone loss. The animals are treated orally with daily doses of enoxacin including 10, 100 and 400 mg/kg body weight. Each group consist of 10 rats. […] Due to the potential for enoxacin to affect intestinal flora, rats are weighed weekly and closely monitored for weight loss and diarrhea. […]

[3] = biological target: T1, interaction between recombinantly-expressed B2 subunit and pure rabbit muscle F-actin (Homo sapiens, UniProt P21281); assay: pelleting assay of B subunit binding to F-actin; settings: 100 uM inhibitor compound; recombinant B subunit 1 μM, F-actin 2 μM; densitometry of SDS-PAGE gels; read-out: % inhibition
T1 construct: made in house
T1 sequence (P21281 whole entry): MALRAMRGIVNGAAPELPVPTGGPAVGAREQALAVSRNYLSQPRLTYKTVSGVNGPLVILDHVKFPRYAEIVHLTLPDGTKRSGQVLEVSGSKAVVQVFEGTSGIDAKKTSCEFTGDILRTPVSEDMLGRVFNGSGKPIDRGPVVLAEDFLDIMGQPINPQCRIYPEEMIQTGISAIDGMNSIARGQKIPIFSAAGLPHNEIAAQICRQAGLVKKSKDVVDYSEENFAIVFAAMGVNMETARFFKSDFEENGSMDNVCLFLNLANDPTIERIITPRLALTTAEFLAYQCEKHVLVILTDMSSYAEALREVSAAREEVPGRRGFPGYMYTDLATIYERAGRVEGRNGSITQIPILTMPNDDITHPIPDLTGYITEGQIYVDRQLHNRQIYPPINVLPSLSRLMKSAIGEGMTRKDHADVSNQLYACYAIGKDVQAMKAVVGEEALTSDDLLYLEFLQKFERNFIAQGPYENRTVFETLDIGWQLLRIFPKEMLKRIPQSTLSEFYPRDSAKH
Protocol: Twenty-one small molecules are tested for their ability to block interaction between recombinantly-expressed B2 subunit and pure rabbit muscle F-actin.
Recombinant B subunit (1 μM) plus/minus F-actin (2 μM)) plus/minus 100 uM inhibitor compounds were incubated for 10 minutes in 20 mM Tris/HCl (pH 7.5), 100 mM NaCl, 1 mM MgCl2, 0.2 mM CaCl2, 0.5 mM ATP, 0.2 mM DTT, then subjected to ultracentrifugation at 180,000×g for 45 min. Supernatants and pellets were collected in SDS-PAGE sample buffer, separated by SDS-PAGE, stained with Coomassie Blue, and densitometry was performed using a Flurchem 8000 (Alpha Innotech, San Leandro Calif.).
The percent inhibition was determined by densitometry of SDS-PAGE gels. The raw densitometric number obtained of the recombinant B subunit band that was pelleted with F-actin, but with no compound present, represented 0% inhibition. The amount of the raw densitometric number of the amount of recombinant B subunit that pelleted with no actin present, but with compound, represented 100% inhibition. The amount of recombinant B subunit that pelleted with actin and the compound being tested was placed as a percentage assuming a linear response.

[4] = biological target: T2, V-ATPase interaction with microfilaments (F-actin) (Mus musculus, UniProt P62814); assay: immunoprecipitation of V-ATPase from soluble osteoclast extracts; settings: control extracts treated after homogenization, prior to immunoprecipitation
T2 construct: endogenous in cells; host or cells: primary mouse marrow osteoclasts (RANKL-differentiated)
T2 sequence (P62814 whole entry): as the sequence (P21281 whole entry) above, with A25M, V26A, R460K, A464T, F474Y counted along it
Protocol: Immunoprecipitations: To further test whether enoxacin disrupts the capacity of V-ATPase to interact with microfilaments, immunoprecipitations are performed from soluble extracts of osteoclasts that had been treated with enoxacin or vehicle control using anti-E subunit and anti-a3 subunit antibodies developed by the present inventors (Zuo, J., et al. J. Bone Miner. Res. 2006, 21:714-721; Lee, B. S., et al. J. Bone Miner. Res., 1999, 14:2127-2136). It is expected that treatments of control extracts with enoxacin after cells are homogenized, but prior to immunoprecipitation, reduces the amount of F-actin attached to the immunoprecipitated V-ATPase.

[5] = tested on: osteoclast formation in calcitriol-stimulated mouse marrow cultures; assay: osteoclastogenesis stimulated by calcitriol in mouse marrow cultures; format: cell-based
Protocol: Enoxacin and Binhib 2 were then tested for their effects on osteoclastogenesis stimulated by calcitriol in mouse marrow cultures. The mixed cultures represent a model for the complex interactions that regulate bone resorption in vivo. […] Osteoclast and osteoblast-containing mouse bone marrow cultures are obtained as above described. 4-6-week-old Swiss-Webster mice (Harlan, Indianapolis, Ind.) are sacrificed by cervical dislocation. Femurs and tibias are dissected free of adherent tissue; the marrow is expelled by cutting both bone ends and flushing the marrow cavity with MEM D10 using a 25-gauge needle. The marrow cells are washed twice and plated in 6 well plates at a concentration of 1×10^6 nucleated cells/cm^2 in MEM D1 0 containing 10 nM calcitriol. Cultures are fed on the third and fifth day of culture by replacing half of the medium with fresh medium containing calcitriol. Cultures are treated with enoxacin at 10 μM or vehicle control on Day 1, and when the media is refreshed.

[6] = tested on: mouse marrow osteoclasts on bone slices; assay: bone resorption pitting quantified by scanning electron microscopy; format: cell-based; set-up: dose or concentration left out as unconfirmed; settings: 5 Days
Protocol: Mouse marrow osteoclasts were grown to maturity for 5 Days then scraped and plated on bone slices treated with bis-enoxacin at the concentrations of 30 mM, 10 mM and 1 mM respectively. After 5 Days, the cells were removed and pitting was quantified by scanning electron microscopy.

mouse marrow osteoclasts = assay: actin ring count on bone slices pre-treated with bis-enoxacin; format: cell-based; settings: bone slices pre-treated at 10 mM and 1 mM; 3 Days of culture
Protocol: Bone slices were incubated with bis-enoxacin at the concentrations of 10 mM and 1 mM respectively. After a 1 Day incubation, the slices were washed 4 times over a period of 24H. Mouse marrow osteoclasts were then plated on the slices, and after 3 Days of culture the cells were fixed and the number of actin rings (a marker for active osteoclasts) was counted.

[7] = tested on: osteoclast formation in mouse marrow cultures; assay: TRAP staining of mouse marrow cultures treated with bis-enoxacin; format: cell-based; set-up: unit of the concentration uncertain; settings: 1 (unit uncertain)0 mM; 6 Days; TRAP positive cells
Protocol: Mouse marrow cultures were treated with bis-enoxacin at the concentrations of 5 mM, 10 mM, 25 mM, 50 mM, and 100 mM respectively, for 6 Days in wells of a 24-well plate. The cells were fixed and stained for tartrate-resistant acid phosphatase (TRAP) activity which is a marker for osteoclasts. The number of TRAP positive mononuclear, multinuclear (2-10 nuclei) and giant (>10 nuclei) were counted.

SMILES | V-ATPase trafficking to ruffled membranes in mature osteoclasts ([1]; 10 μM) | ruffled membrane formation ([1]; 10 μM, 3 days) | ruffled membrane formation ([1]; concentration not given) | E subunit labeling distribution ([1]; mature osteoclasts on bone slices, 3 days) | osteoblast formation, judged by alkaline phosphatase expressing cells (osteoblast formation) | number and/or size of GW bodies (GW bodies) | ruffled membranes of osteoclasts along the bone surface [2] | inhibition at 100 µM [3] | amount of F-actin attached to the immunoprecipitated V-ATPase [4] | formation of osteoclasts ([5]; 1 μM) | osteoclast formation ([5]; 1-10 μM) | IC50 ([5]; Osteoclast, calcitriol-stimulated mouse marrow cultures) | osteoclast formation ([5]; concentration not given) | osteoclast formation ([5]; single dose at the onset of the marrow culture period, end of 7 Days) | bone resorption compared to control [6] | reduction of actin ring numbers (mouse marrow osteoclasts) | effects on osteoclast formation compared with enoxacin [7]
CCn1cc(C(=O)O)c(=O)c2cc(F)c(N3CCNCC3)nc21 [enoxacin, 1-ethyl-6-fluoro-4-oxo-7-(piperazin-1-yl)-1,4-dihydro-1,8-naphthyridine-3-carboxylic acid] | completely inhibited | blocks | disrupted | perinuclear distribution | not affected | increase | does not have ruffled membranes | 92% | reduces | significantly reduced | inhibited | 1 µM | inhibits | dramatic reductions |  |  | 
CCn1cc(C(=O)O)c(=O)c2cc(F)c(N3CCN(CC(P(=O)(O)O)P(=O)(O)O)CC3)nc21 [bis-enoxacin, 7-(4-(2,2-Diphosphonoethyl)piperazin-1-yl)-1-ethyl-6-fluoro-4-oxo-1,4-dihydro-1,8-naphthyridine-3-carboxylic acid] |  |  |  |  |  |  |  |  |  |  |  |  |  |  | reduced | approximately 60% | identical effects
